# Test results reported in patent US8748412B2, “Phenylalanine derivatives and their use as non-peptide GLP-1 receptor modulators” (Argusina Bioscience Inc., priority 2011, dated 2014).
# Target: T1, human GLP1R (Homo sapiens, UniProt P43220)
# T1 construct: expressed in transfected cells; host or cells: CHO cells (ATCC), transient transfection with pCMV-human GLP1R
# Assay: Human GLP-1 receptor transfected cell assay (MRE/CRE-luciferase reporter gene, agonist activity)
# Format: cell-based
# Conditions: 6 h; conc. 10 μM; percentage of the activity of the control; read-out: Agonist Activity
# Protocol: The glucagon-like peptide I receptor (GLP1R) is a class B Gs-coupled membrane receptor, an agonist of which activates adenylate cyclase (AC) and elevates intracellular cAMP level. In turn, the high content of secondary messengers can activate the cAMP response element binding protein (CREB), which can translocate into nucleus to activate gene transcription.
# A reporter gene based screening assay was established to measure the effect of a compound on GLP1R. In this assay, a compound was incubated with CHO cells transiently transfected with a human GLP1R plasmid and a multiple response element (MRE)/cAMP response element (CRE)-driven luciferase reporter plasmid. Once luciferase was induced by the compound, its specific substrate can be activated to produce light signal for measurement.
# Materials used in this assay included: (i) cell line: Chinese hamster ovary (CHO) cells (ATCC); (ii) fetal bovine serum (FBS) (Biochrom Co.); (iii) culture medium: RPMI1640 (Invitrogen Co.) supplemented with 10% FBS; (iv) LIPOFECTAMINE™ 2000 Reagent (Invitrogen Co.); (v) plasmids: pCMV-human GLP1R and pGL3-1905 reporter plasmid; (vi) GLP1 (7-36 amide) peptide (Sigma Co.); and (vii) BRIGHT-GLO™ Luciferase Assay System (Promega Co.).
# Instruments used in this assay included: (i) Form a carbon dioxide incubator (Thermo Form a Co.); and (ii) Flexstation 3 (Molecular Device Co.).
# Before transfection, CHO cells were plated into a 6-well culture plate at 800,000/2 mL/well, and cultured at 37° C. in 5% CO2 overnight. On the transfection day, cells were transfected with receptor plasmid and reporter plasmid using LIPOFECTAMINE™ 2000 reagent. After 6-hour transfection, cells were digested and seeded into 96-well plates at 20,000/100 μL/well. After 14-16 hour incubation, transfected cells were washed with 100 μL serum-free RPMII 640 medium first, and then added 50 μL of the culture medium. The GLP-1 standard and test compounds were respectively diluted to a series of concentrations, which were then added into the above 96-well culture plate at 50 μL/well. The cells were incubated at 37° C. in 5% CO2 for 6 hrs. The activity of luciferase was detected using BRIGHT-GLO™ Luciferase Analytic System, and the reading was performed with a Flexstation3 plate reader machine.
# T1 sequence (P43220 24-463): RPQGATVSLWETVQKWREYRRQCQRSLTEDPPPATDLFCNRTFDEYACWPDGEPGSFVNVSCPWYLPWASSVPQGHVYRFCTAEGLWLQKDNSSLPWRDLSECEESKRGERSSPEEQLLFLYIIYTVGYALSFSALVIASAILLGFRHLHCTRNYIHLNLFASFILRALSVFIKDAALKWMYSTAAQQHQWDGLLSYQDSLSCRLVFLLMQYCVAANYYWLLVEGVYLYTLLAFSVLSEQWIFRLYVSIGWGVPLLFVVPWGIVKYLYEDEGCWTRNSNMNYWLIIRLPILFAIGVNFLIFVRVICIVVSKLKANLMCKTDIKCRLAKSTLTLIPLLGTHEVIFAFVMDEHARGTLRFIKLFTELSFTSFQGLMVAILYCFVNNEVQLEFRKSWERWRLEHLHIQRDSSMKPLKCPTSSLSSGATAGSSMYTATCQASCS
row,SMILES,activation at 10 µM
1,CC(C)(C)OC(=O)Nc1ccc(-c2nc(-c3ccc(CC(NC(=O)C4CCN(C(=O)OC(C)(C)C)CC4)C(=O)O)cc3F)no2)cc1 (centres unmarked) [Compound 11R],> 60%
2,CC(C)(C)OC(=O)Nc1ccc(-c2nc(-c3ccc(CC(NC(=O)N4CCN(c5cccc(Cl)c5)CC4)C(=O)O)cc3F)no2)cc1 (centres unmarked) [Compound 12C],> 60%
3,CC(C)(C)OC(=O)Nc1ccc(-c2nc(-c3ccc(CC(NS(=O)(=O)c4ccc(-c5ccccc5)cc4)C(=O)O)cc3F)no2)cc1 (centres unmarked) [Compound 11K],> 60%
4,CC(C)(C)OC(=O)Nc1ccc(-c2nc(-c3ccc(CC(NC(=O)c4ccc(-c5ccc(F)cc5)s4)C(=O)O)cc3F)no2)cc1 (centres unmarked) [Compound 11P],20 to 40%
5,Cc1ccc(N2CCC(NC(=O)NC(Cc3ccc(-c4noc(-c5ccc(NC(=O)OC(C)(C)C)cc5)n4)c(F)c3)C(=O)O)C2)cc1 (centres unmarked) [Compound 13P],> 60%
6,Cc1ccc(-c2cc(C(=O)NC(Cc3ccc(-c4noc(-c5ccc(NC(=O)OC(C)(C)C)cc5)n4)c(F)c3)C(=O)O)ccn2)cc1 (centres unmarked) [Compound 14C],> 60%
7,CC(C)(C)OC(=O)Nc1ccc(-c2nc(-c3ccc(CC(NS(=O)(=O)N4CCN(c5ccccc5)CC4)C(=O)O)cc3F)no2)cc1 (centres unmarked) [Compound 11X],> 60%
8,CC(C)(C)OC(=O)Nc1ccc(-c2nc(-c3ccc(CC(NS(=O)(=O)c4ccc(C(F)(F)F)cc4[N+](=O)[O-])C(=O)O)cc3F)no2)cc1 (centres unmarked) [Compound 11M],> 60%
9,Cc1ccc(CNC(=O)C(Cc2ccc(OC(=O)c3ccc(NC(=O)OC(C)(C)C)cc3)c(F)c2)c2nnn[nH]2)cc1 (centres unmarked) [Compound 11D],20 to 40%

# Same assay, conditions: 6 h; concentration 1 μM; read-out: Activity (agonist), percentage of the activity of the control
row,SMILES,activation at 1 µM
1,Cc1cc(-c2ccc(C(=O)N[C@@H](Cc3ccc(-c4noc(-c5ccc(NC(=O)OC(C)(C)C)cc5)n4)c(F)c3)C(=O)O)o2)ccc1F [Compound 10E],> 60%
2,CC(C)(C)OC(=O)Nc1ccc(-c2nc(-c3ccc(CC(NC(=O)N4CCN(c5ccc(Cl)cc5)CC4)C(=O)O)cc3F)no2)cc1 (centres unmarked) [Compound 4K],> 60%
3,Cc1cc(C[C@@H](NC(=O)c2ccc(-c3ccc(Cl)cc3F)o2)C(=O)O)ccc1-c1noc(-c2ccc(NC(=O)OC(C)(C)C)cc2)n1 [Compound 6S],20 to 40%
4,Cc1ccc(-c2ccc(C(=O)NC(Cc3ccc(-c4noc(-c5ccc(NC(=O)OC(C)C)cc5)n4)c(F)c3)C(=O)O)o2)cc1 (centres unmarked) [Compound 2D],40 to 60%
5,CC(C)(C)OC(=O)Nc1ccc(-c2nc(-c3ccc(CC(NC(=O)Nc4cc(-c5ccc(F)cc5)on4)C(=O)O)cc3F)no2)cc1 (centres unmarked) [Compound 4S],40 to 60%
6,Cc1cc(-c2ccc(C(=O)N[C@H](Cc3ccc(-c4noc(-c5ccc(NC(=O)OC(C)(C)C)cc5)n4)c(F)c3)C(=O)O)o2)ccc1F [Compound 9E],> 60%
7,CC(C)(C)OC(=O)Nc1ccc(-c2nc(-c3ccc(CC(NC(=O)c4cccc(-c5ccc(F)cc5)c4)C(=O)O)cc3F)no2)cc1 (centres unmarked) [Compound 1V],40 to 60%
8,CC(C)Oc1ccc(-c2ccc(C(=O)N[C@H](Cc3ccc(-c4noc(-c5ccc(NC(=O)OC(C)(C)C)cc5)n4)c(F)c3)C(=O)O)o2)cc1F [Compound 6O],20 to 40%
9,"Cc1ccc(S(=O)(=O)NC(Cc2ccc(-c3noc(-c4ccc(NC(=O)OC(C)(C)C)cc4)n3)c(F)c2)C(=O)O)cc1Cl (centres unmarked) [Compound 3P, 3-{4-[5-(4-tert-Butoxcarbonylamino-phenyl)-[1,2,4]oxadiazol-3-yl]-3-fluorophenyl}-2-(3-chloro-4-methyl-benzenesulfonylamino)-propionic acid]",40 to 60%
10,Cc1ccc(-c2ccc(C(=O)NC(Cc3ccc(-c4ccc(-c5ccc(NC(=O)OC(C)(C)C)cc5)s4)c(F)c3)C(=O)O)o2)cc1 (centres unmarked) [Compound 5N],> 60%
11,CC(C)(C)OC(=O)Nc1ccc(-c2nc(-c3ccc(CC(NC(=O)c4cccc(-c5ccc(C6CC6)cc5)c4)C(=O)O)cc3F)no2)cc1 (centres unmarked) [Compound 2L],> 60%

# Same assay, conditions: 6 h; concentration 3 μM; read-out: Activity (agonist), percentage of the activity of the control
row,SMILES,activation at 3 µM
1,COc1ccc(C[C@@H](NC(=O)c2ccc(-c3ccc(C)cc3)o2)C(=O)O)cc1-c1noc(-c2ccc(NC(=O)OC(C)(C)C)cc2)n1 [Compound 6W],20 to 40%
2,CC(C)Oc1ccc(-c2ccc(C(=O)N[C@H](Cc3ccc(-c4noc(-c5ccc(NC(=O)OC(C)(C)C)cc5)n4)c(F)c3)C(=O)O)o2)cc1 [Compound 6N],40 to 60%
3,Cn1nc(C(C)(C)C)cc1NC(=O)NC(Cc1ccc(-c2noc(-c3ccc(NC(=O)OC(C)(C)C)cc3)n2)c(F)c1)C(=O)O (centres unmarked) [Compound 5B],40 to 60%
4,CC(C)(C)OC(=O)Nc1ccc(-c2nc(-c3ccc(CC(NC(=O)N4CCC(c5ccccc5)C4)C(=O)O)cc3F)no2)cc1 (centres unmarked) [Compound 5D],> 60%
5,Cc1ccc(-c2ccc(C(=O)N[C@H](Cc3cc(C)cc(-c4noc(-c5ccc(NC(=O)OC(C)(C)C)cc5)n4)c3)C(=O)O)o2)cc1 [Compound 2E],40 to 60%
6,CC(C)(C)OC(=O)Nc1ccc(-c2nc(-c3ccc(CC(NC(=O)c4cn(Cc5ccc(F)cc5)nn4)C(=O)O)cc3F)no2)cc1 (centres unmarked) [Compound 3K],20 to 40%
7,CC(C)(C)OC(=O)Nc1ccc(C#Cc2ccc(CC(NC(=O)c3cccc(-c4ccc(Cl)cc4)c3)C(=O)O)cc2F)cc1 (centres unmarked) [Compound 4E],20 to 40%

# Same assay, conditions: 6 h; concentration 3.16 μM; read-out: Activity (agonist), percentage of the activity of the control
row,SMILES,activation at 3.16 µM
1,CC(C)(C)OC(=O)Nc1ccc(-c2nc(-c3ccc(CC(NC(=O)N4CCCN(c5ccc(F)cn5)CC4)C(=O)O)cc3F)no2)cc1 (centres unmarked) [Compound 4Q],> 60%
2,CC(C)(C)OC(=O)Nc1ccc(-c2ccc(-c3ccc(CC(NC(=O)c4ccc(-c5ccc(F)cc5)o4)C(=O)O)cc3F)s2)cc1 (centres unmarked) [Compound 5O],> 60%
3,Cc1ccc(-c2ccc(C(=O)NC(Cc3ccc(-c4noc(-c5ccc(NC(=O)OC(C)(C)C)cc5C(F)(F)F)n4)c(F)c3)C(=O)O)o2)cc1 (centres unmarked) [Compound 1P],> 60%
4,Cc1ccc(S(=O)(=O)NC(C)(Cc2ccc(-c3noc(-c4ccc(NC(=O)OC(C)(C)C)cc4)n3)c(F)c2)C(=O)O)cc1 (centres unmarked) [Compound 3N],20 to 40%
5,CC(C)(C)OC(=O)Nc1ccc(-c2nc(-c3ccc(CC(NC(=O)c4cccc(-c5ccc(Cl)cc5F)n4)C(=O)O)cc3F)no2)cc1 (centres unmarked) [Compound 2N],> 60%
6,CC(C)(C)OC(=O)Nc1ccc(-c2nc(-c3ccc(CC(NC(=O)Nc4cc(-c5ccc(Cl)cc5)n[nH]4)C(=O)O)cc3F)no2)cc1 (centres unmarked) [Compound 4I],> 60%
7,Cc1ccc(-c2cccc(C(=O)N[C@H](Cc3ccc(-c4noc(-c5ccc(NC(=O)OC(C)(C)C)cc5)n4)c(F)c3)C(=O)O)c2)cc1Cl [Compound 6H],> 60%

# Same assay, conditions: 6 h; concentration 5 μM; read-out: Activity (agonist), percentage of the activity of the control
row,SMILES,activation at 5 µM
1,Cc1ccc(N2CCN(CC(=O)NC(Cc3ccc(-c4noc(-c5ccc(NC(=O)OC(C)(C)C)cc5)n4)c(F)c3)C(=O)O)CC2)cc1 (centres unmarked) [Compound 5H],> 60%

# Same assay, conditions: 6 h; concentration 10 μM; read-out: Activity (agonist), percentage of the activity of the control
row,SMILES,activation at 10 µM
1,CC(C)(C)OC(=O)Nc1ccc(-c2nc(-c3ccc(CC(NC(=O)c4ncn(-c5ccc(C(C)(C)C)cc5)n4)C(=O)O)cc3F)no2)cc1 (centres unmarked) [Compound 3I],40 to 60%
2,CC(C)(C)OC(=O)Nc1ccc(-c2nc(-c3ccc(CC(NC(=O)c4cccc(Nc5ccccc5)c4)C(=O)O)cc3F)no2)cc1 (centres unmarked) [Compound 3T],40 to 60%
3,Cc1cccc(-c2ccc(C(=O)NC(Cc3ccc(-c4noc(-c5ccc(NC(=O)OC(C)(C)C)cc5)n4)c(F)c3)C(=O)O)o2)c1 (centres unmarked) [Compound 1K],> 60%
4,CC(C)(C)OC(=O)Nc1ccc(-c2nc(-c3ccc(CC(NC(=O)c4cc(-c5ccccc5)cs4)C(=O)O)cc3F)no2)cc1 (centres unmarked) [Compound 1Z],40 to 60%
5,COc1cc2c(cc1OC(=O)c1ccc(NC(=O)OC(C)(C)C)cc1)CN(S(=O)(=O)c1ccc(C)cc1)C(C(=O)O)C2 (centres unmarked) [Compound 5V],> 60%
6,CC(C)(C)OC(=O)Nc1ccc(-c2nc(-c3ccc(CC(NC(=O)c4cnn(-c5ccc(F)cc5)c4)C(=O)O)cc3F)no2)cc1 (centres unmarked) [Compound 2T],> 60%
7,CC(C)(C)OC(=O)Nc1ccc(-c2nc(-c3ccc(C[C@@H](NC(=O)c4cccc(-c5ccc(Cl)cc5)c4)C(=O)O)cc3F)no2)cc1 [Compound 6A],> 60%
8,Cc1ccc(-c2ccc(NC(=O)NC(Cc3ccc(-c4noc(-c5ccc(NC(=O)OC(C)(C)C)cc5)n4)c(F)c3)C(=O)O)nc2)cc1F (centres unmarked) [Compound 5F],> 60%
9,Cc1ccc(-c2ccc(NC(=O)NC(Cc3ccc(-c4noc(-c5ccc(NC(=O)OC(C)(C)C)cc5)n4)c(F)c3)C(=O)O)cn2)cc1 (centres unmarked) [Compound 4O],> 60%
